In patent publication US6608103B2, “Inhibitor for neovasculation, cell multiplication, lumen formation and FGF” (Fuji Chemical Industry Co., Ltd., priority 2001, dated 2003):
Entries after “also recorded” stand apart in the source; their conditions may differ.

Key:
BAEC [1] = assay: Inhibition against lumen formation induced by FGF; type: cell-based, bovine; set-up: key to Lumen Formation: ↑: Accelerated; /: Tendency to increase; No change; ↓: Inhibited; ↓↓: Strongly inhibited
Method: (§1) Eight parts by volume of “Vitrogen Collagen” (Collagen Co.), 1 part by volume of 0.1 N NaOH and 1 part by volume of ×10 MEM (GIBCO BRL) were placed in a tube, and mixed quickly in an ice bath. The culture solution was removed by suction, and 0.5 ml/well of the above mixture containing collagen was pipetted into each well. The microplate was placed in a CO2 incubator for about 30 minutes to gelatinize it. 1.5 ml of a medium (MEM | 2% FBS) containing a sample was added, and continued to incubate while changing the medium every second day.
(§2) The variation of cells were observed by a microscope by taking a photograph, and lumen formation was evaluated by counting the number of branches of cells forming lumen.
The test was carried out similar to Examples 12-14, wherein FGF was added together with each tocotrienol. In the case of Control group E, no sample was added. […]

BAEC [2] = assay: Effects of tocotrienols on multiplication of BAEC, MTT assay; type: cell-based, bovine; settings: for Absorbance: MTT, sample 10 μM
Method: Normal bovine aortic endothelial cells (BAEC) were manufactured by Cell Systems Co., and purchased through Dainippon Seiyaku Co., Ltd.
A cell suspension was prepared by adding the cells to MEM (Sigma Chemical Co.) containing 10 v/v (%) fetal bovine serum (FBS), 20 IU/ml penicillin and 20 IU/ml streptomycin (MEM+10% FBS) in a concentration of 1×10^5 cells/ml, and cultured in a 5% CO2 incubator at 37° C. by using a 60 mm dish coated with type I collagen with subculturing every 2 to 3 days.
Each of the above samples was added to MEM containing 2% (v/v) FBS, 20 IU/ml penicillin and 20 IU/ml streptomycin (MEM+2% FBS), and subjected to testing.
Effects of tocotrienols on the multiplication of BAEC were examined by using MTT assay.
(§3) Each one microplate was taken out after 0, 24, 48 or 96 hours from placing the culture medium containing a sample. In the case of the microplate taken out after 96 hours, the culture medium was once changed after 48 hours. 3 mg/ml MTT solution PBS (−) was put in each well in an amount of 50 μl/well, and incubated for 3 hours in a CO2 incubator. After filling each well with phosphate buffered saline (PBS(−)), liquid in each well was evacuated, and isopropyl alcohol containing 0.04 mol/l HCL was put in each well in an amount of 200 μl/well. The microplates were allowed to stand overnight in a dark place, and then, absorbance at 595 nm and 655 nm (dual) was measured by a microplate reader.
In the case of Control group A, no sample was added.

BAEC [3] = assay: Measurement of LDH activity, rate of cell damage of BAEC
Method: A rate of cell damage of BAEC by the sample was evaluated by measuring free LDH activity in a culture medium using a kit for LDH-cytotoxicity testing (Wako Co.)
(§4) BAEC with confluent growth were treated with trypsin, and suspended in MEM | 10% FBS in a concentration of 5×10^4 cell/ml. The cell suspension was placed in each well of a 96 well-microplate in an amount of 100 μl/well, and incubated overnight in a CO2 incubator. The culture solution in each well was removed, and changed to 100 μl culture medium (MEM+2% FBS) containing a sample to continue incubation. In the experiment, MEM+2% FBS was employed as a negative control (NC), and 2% Tween 20 dissolved in MEM | 2% FBS was employed as a positive control (PC). After 48 hours, 50 μl culture medium in each well was transferred to a new well, and the color producing reagent in the kit was added to the new wells in an amount of 50 μl/well. After incubating for 45 minutes at room temperature, reaction was terminated by adding 100 μl of 0.5 N HCL/well, and absorbance at 595 nm was measured. The rate of cell damage was determined by the following formula:
(§5) Rate of Cell Damage=(S−N)/(P−N)×100(%)
N: Absorbance of negative control
P: Absorbance of positive control
In Control group G, no sample was added.
The assay was carried out in the same manner as Example 30, except that the tocotrienol was replaced by α-tocopherol.

BAEC [4] = assay: Cell multiplication of BAEC, survival rate of cells using WST-1; type: cell-based, bovine; settings: for Survival Rate of Cells (% of control): 24 hours, WST-1
Method: Influence of tocotrienols on cell multiplication of BAEC was examined in various concentrations. The cell multiplication was evaluated by determining the survival rate of cells using WST-1, which makes it possible to conduct high sensitivity measurement, instead of conventional MTT.
As a blank, the culture medium alone was incubated without adding cells. […] The microplate was taken out after 24 hours from placing the culture medium containing a sample. 10 μl/well of WST-1 solution was added to each well, and incubated in a CO2 incubator. After 3 hours, absorbance at 450 nm and 655 nm (dual) of each well was measured by a microplate reader.
The samples employed were DL-α-tocotrienol, DL-γ-tocotrienol and DL-δ-tocotrienol. In the case of Control group I, no sample was added.
The survival rate of cells was determined by the following formula:
Survival Rate of Cells=(S−B)/(C−B)×100(%)
The results of Table 10 were made in a graph shown in FIG. 1, and median growth inhibition concentration (IC50) was determined from the graph. In the figure, the numbers on the ordinate indicate the survival rate of cells (% of control), and the numbers on the abscissa indicate concentration (μM). ● is DL-α-tocotrienol, ▪ is DL-β-tocotrienol, Δ is DL-γ-tocotrienol, and X is DL-δ-tocotrienol, respectively.

BAEC [5] = assay: Cell damage action (LDH) with FGF added; settings: FGF 20 ng/ml + sample 10 μM
Method: as §4, §5
Cell damage action of DL-α-tocotrienol, DL-β-tocotrienol, DL-γ-tocotrienol, DL-δ-tocotrienol and the tocotrienol mixture was examined against FGF. […] In Control group H, no sample was added.
The assay was carried out in the same manner as Example 36, except that the tocotrienol was replaced by α-tocopherol.

BAEC [6] = assay: Inhibitory action against FGF activity, MTT assay on BAEC with FGF 20 ng/ml; type: cell-based, bovine; set-up: key to Cell Multiplication: ↑: Accelerated; /: Tendency to increase; No change; ↓: Inhibited; ↓↓: Strongly inhibited; settings: for Absorbance: MTT, FGF 20 ng/ml + sample 10 μM
Method: The fibroblast growth factor sample was prepared by dissolving a commercial FGF (Sigma Chemical Co.) in MEM (Sigma Chemical Co.)
as §3
In the case of Control group B, no sample was added.

BAEC [7] = assay: Neovasculation / lumen formation of BAEC between two layers of type I collagen gel; type: cell-based, bovine
Method: BAEC was cultured between two layers of type I collagen gel, and a lumen-like netting structure formed therebetween was evaluated.
as §1, §2
The inhibition test against lumen formation was carried out in the same manner as Example 15, except that α-tocopherol was substituted for DL-α-tocotrienol.

[8] = summary, FGF (20 ng/ml) + sample (10 μM)

`CC(C)=CCC/C(C)=C/CC/C(C)=C/CC[C@]1(C)CCc2cc(O)c(C)c(C)c2O1` (racemic) [DL-γ-Tocotrienol, γ-tocotrienol] was tested, and the “inhibition of lumen formation induced by FGF” value (BAEC [1]; 10 μM + FGF 20 ng/ml) was “inhibited the lumen formation induced by FGF; also recorded: exhibit inhibitory action against lumen formation”, the “Number of Cells Forming Lumen/cm^2” value (BAEC [1]; sample 10 μM + FGF 20 ng/ml) was 12.50 ± 3.20 /cm^2 and the “Lumen Formation” value (BAEC [1]; [8]) was “↓”. The “inhibitory action against cell multiplication” value (BAEC [2]; 10 μM, Table 1) was “remarkable inhibitory action”, the Absorbance (BAEC [2]; 0 hr) was 0.101 ± 0.002 and the Absorbance (BAEC [2]; 24 hrs) was 0.020 ± 0.001. For the same molecule, the Absorbance (BAEC [2]; 48 hrs) was 0.010 ± 0.002, the Absorbance (BAEC [2]; 96 hrs) was 0.003 ± 0.000 and the “activity to damage cells” value (BAEC [3]; 10 μM, Table 7) was “have an activity to damage cells”. For the same molecule, the “Rate of Cell Damage (% of control)” value (BAEC [3]; Table 7, 10 μM, 48 hours) was 265.33 ± 3.18 % of control, the “Survival Rate of Cells (% of control)” value (BAEC [4]; 10 μM) was 102.3 ± 10.8 % of control and the “Survival Rate of Cells (% of control)” value (BAEC [4]; 12 μM) was 15.5 ± 4.5 % of control. The “Survival Rate of Cells (% of control)” value (BAEC [4]; 14 μM) was 3.4 ± 3.1 % of control, the “Survival Rate of Cells (% of control)” value (BAEC [4]; 16 μM) was 0.0 ± 0.1 % of control and the “Survival Rate of Cells (% of control)” value (BAEC [4]; 18 μM) was 2.0 ± 2.8 % of control. The IC50 (BAEC [4]; determined from the graph of FIG. 1 (abscissa μM), read-out: median growth inhibition concentration (IC50)) was 11 µM, the “Rate of Cell Damage (% of control)” value (BAEC [5]) was 101.15 ± 2.38 % of control and the Absorbance (BAEC [6]; 0 hr) was 0.042 ± 0.002. For the same molecule, the Absorbance (BAEC [6]; 24 hrs) was 0.085 ± 0.004, the Absorbance (BAEC [6]; 48 hrs) was 0.232 ± 0.016 and the Absorbance (BAEC [6]; 96 hrs) was 0.431 ± 0.011. The “Cell Multiplication” value (BAEC [6]; [8]) was “↑”, the “inhibition of lumen formation” value (BAEC [7]; 10 μM) was “inhibited lumen formation sufficiently” and the “Number of Cells Forming Lumen/cm^2” value (BAEC [7]; Table 4, 10 μM) was 4.75 ± 0.48 /cm^2.
